Assay results reported in patent US5560912A, “Method for inhibiting growth of helicobacter pylori” (Technion Research & Development Foundation Ltd., priority 1994, dated 1996).

Key:
[1] = system: Helicobacter pylori; assay: Filter paper disc diffusion method, zone of inhibition; assay type: cell-based
Description: The inhibition effect was determined in-vitro, using the "Filter paper disc diffusion method" as described by Laura L. Zaika, (journal of Food Safety 9,1988,p.97-118). According to the method used, an extract of the plant was deposited on a small filter paper disc having a diameter of 0.5 cm and then placed in the center of a Petri plate containing agar growth medium inoculated with the test microorganism. The plate was incubated under microaerophilic conditions in anaerobic jars at 37° C. for 3 to 4 days and observed for microbial growth. If the extract of Cinnamon exerts antimicrobial activity, the microorganism will not grow in an area surrounding the filter paper disc. This clear area, defined as "zone of inhibition" was measured and recorded in mm. This method is well-known also for determining the activity of an antibiotic compound, by measuring the zone of inhibition arround a disc containing a sample of the antibacterial compound to be tested.
The assays used for the bacterial growth inhibition were as follows:
Two organic Cinnamon extracts, methylene chloride and ethanol in concentrations of 0.05 mg and 0.1 mg respectively were spotted on standard discs and placed on Egg Yolk Emulsion agar plate center which was previously layered with 0,1 ml of a bacterial suspension having a concentration of 10^7 CFU ml.
After the required incubation, the inhibition zone was recorded. In FIG. 2,there are presented the sensitivity of Helicobacter pylori, as determined by the inhibition diameter, using two organic extracts of Cinnamon (0,05 mg and 0.1 mg dry weight) compared with antibiotics: ampicillin (0.0. mg), tetracycline (0.03 mg), erythromycine (0.015 mg) nalidixic acid (0.03 mg), cotrimoxazole (0.025 mg). In these tests, two isolates of H.pylori were used.
The tests were carried out on Egg Yolk Emulsion agar plate, the Cinnamon concentrations on disk were in the range of […].

[2] = system: Helicobacter pylori; assay: as above; assay type: cell-based; conditions: read-out: Inhibition zone
[3] = Helicobacter pylori, read-out: Inhibition zone

With `OC/C=C/c1ccccc1` [Cinnamic alcohol] the “inhibition of H. pylori growth, in words” value [1] was “only a lower inhibition zone”, the zone of inhibition at 200 µg/disc [1, 3] was 12 mm and the zone of inhibition at 400 µg/disc ([1]; Helicobacter pylori, 0.4 mg/disk) was 20 mm.
With `CC1=CC=C(C(C)C)CC1` [Alpha-terpinene] the “inhibition of H. pylori growth, in words” value [1] was “only a lower inhibition zone” and the zone of inhibition at 2000 µg/disc [2] was 17 mm.
`O=CC=Cc1ccccc1` [Cinnamaldehyde] was tested, and the “inhibition of H. pylori growth, in words” value [1] was “substantial complete inhibition”, the zone of inhibition at 50 µg/disc [1, 3] was 45 mm and the zone of inhibition at 100 µg/disc [1, 3] was 60 mm. It also gave a zone of inhibition at 200 µg/disc [1, 3] greater than 90 mm.
With `COc1ccccc1/C=C/C=O` the “inhibition of H. pylori growth, in words” value [1] was “beneficial effect on the inhibition but with a higher concentration”, the Inhibition zone ([1]; 0.2 mg/disk, * = substantial complete inhibition) was 44 mm and the Inhibition zone ([1]; 0.4 mg/disk) was 57 mm. It also gave an Inhibition zone ([1]; 0.6 mg/disk) of 68 mm.
For `CC1=CCC(O)(C(C)C)CC1` (stereo not shown) [Terpinen-4-ol], the zone of inhibition at 2000 µg/disc [2] was 22 mm.
Work on `CC1=CCC2CC1C2(C)C` (stereo not drawn) [Alpha-pinene] yielded a zone of inhibition at 2000 µg/disc [2] of 18 mm.
In the case of `O=C(OCc1ccccc1)c1ccccc1` [Benzyl-benzoate], the zone of inhibition at 2000 µg/disc [2] is reported as 17 mm.
